Reference: patent publication US20260078120A1, “SUBSTITUTED PYRIDOPYRIMIDINONES” (MIRATI THERAPEUTICS, INC., priority 2022, published 2026)

Columns and labels:
[1] = test system: T47D (PI3Kα H1047R mutant) cells; experiment: CellTiter-Glo 2.0 luminescent cell viability assay, 72 hours, T47D cells; type: cell-based; details: Homo sapiens, T47D, 72 h, T47D (PI3Kα H1047R mutant) cells, CellTiter-Glo, approximately 72 hours; read-out: T47D (H1047R mutant) Viability IC50
Method in brief: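 Viability was measured by CellTiter-Glo 2.0 luminescence after approximately 72 h of compound exposure at 37° C. Plating was 1000 cells per well the day before dosing, with ten 1:4 dilutions from a 10 µM top concentration. Values as percent of vehicle were fitted by variable-slope log(inhibitor) regression to give IC50.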

[2] = test system: SKBR3 (PI3Kα wild type) cells; experiment: CellTiter-Glo 2.0 luminescent cell viability assay, 72 hours, SKBR3 cells; type: cell-based; details: Homo sapiens, SK-BR-3, 72 h, SKBR3 (PI3Kα wild type) cells, CellTiter-Glo, approximately 72 hours; read-out: SKBR3 (WT) Viability IC50
Method in brief: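 Viability measured via CTG luminescence following roughly 72 hours of compound exposure at 37° C. Dosing used a 10 um starting concentration diluted 1:4 over 10 points; percent-of-vehicle data fitted with a variable-slope four-parameter model for IC50.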

| SMILES | IC50 [1] [µM] | IC50 [2] [µM] |
| --- | --- | --- |
| Cc1cc([C@H](C)Nc2ccc(F)nc2C(=O)O)c2nc(N3CCC(F)(F)CC3)c(C#N)c(=O)n2c1 [Example 11-43, (S)-3-((1-(3-cyano-2-(4,4-difluoropiperidin-1-yl)-7-methyl-4-oxo-4H-pyrido[1,2-a]pyrimidin-9-yl)ethyl)amino)-6-fluoropicolinic acid] | 0.372 | > 10 |
| Cc1cc([C@@H](C)Nc2ccccc2C(=O)O)c2nc(N3CC4C(C3)C4(F)F)c(C)c(=O)n2c1 (stereo partly drawn) [Example 11-222, 2-(((1R)-1-(2-(6,6-difluoro-3-azabicyclo[3.1.0]hexan-3-yl)-3,7-dimethyl-4-oxo-4H-pyrido[1,2-a]pyrimidin-9-yl)ethyl)amino)benzoic acid] | 0.155 | > 10 |
| Cc1cc([C@@H](C)Nc2ccccc2C(=O)O)c2nc(N3CCN(c4ccc(C#N)cc4)CC3)c(C#N)c(=O)n2c1 [Example 11-272, (R)-2-((1-(3-cyano-2-(4-(4-cyanophenyl)piperazin-1-yl)-7-methyl-4-oxo-4H-pyrido[1,2-a]pyrimidin-9-yl)ethyl)amino)benzoic acid] | 0.141 | > 10 |
| Cc1cc([C@@H](C)Nc2ccccc2C(=O)O)c2nc(N3Cc4ccccc4C3CO)c(C)c(=O)n2c1 (stereo partly drawn) [Example 11-19, 2-(((1R)-1-(2-(1-(hydroxymethyl)isoindolin-2-yl)-3,7-dimethyl-4-oxo-4H-pyrido[1,2-a]pyrimidin-9-yl)ethyl)amino)benzoic acid] | 0.173 | > 10 |
| Cc1cc([C@@H](C)Nc2ccccc2C(=O)O)c2nc(N3CC4(CCC4)C3)c(C#N)c(=O)n2c1 [Example 11-323, (R)-2-((1-(3-cyano-7-methyl-4-oxo-2-(azaspiro[3.3]heptan-2-yl)-4H-pyrido[1,2-a]pyrimidin-9-yl)ethyl)amino)benzoic acid] | 0.156 | > 10 |
| Cc1cc([C@@H](C)Nc2cccc(F)c2C(=O)O)c2nc(N3Cc4ccccc4C3)c(C#N)c(=O)n2c1 [Example 11-307, (R)-2-((1-(3-cyano-2-(isoindolin-2-yl)-7-methyl-4-oxo-4H-pyrido[1,2-a]pyrimidin-9-yl)ethyl)amino)-6-fluorobenzoic acid] | 0.379 | > 10 |
| Cc1cc([C@@H](C)Nc2ccc(Cl)cc2C(=O)O)c2nc(N3CCCCC3)c(C)c(=O)n2c1 [Example 11-281, (R)-5-chloro-2-((1-(3,7-dimethyl-4-oxo-2-(piperidin-1-yl)-4H-pyrido[1,2-a]pyrimidin-9-yl)ethyl)amino)benzoic acid] | 0.427 | > 10 |
| C[C@@H](Nc1ccccc1C(=O)O)c1cc(C(F)F)cn2c(=O)c(C#N)c(N3CCC(F)(F)CC3)nc12 [Example 11-168, (R)-2-((1-(3-cyano-7-(difluoromethyl)-2-(4,4-difluoropiperidin-1-yl)-4-oxo-4H-pyrido[1,2-a]pyrimidin-9-yl)ethyl)amino)benzoic acid] | 0.241 | > 10 |
| Cc1cc([C@@H](C)Nc2ccccc2C(=O)O)c2nc(N3C4CC3CN(c3ccc(C#N)cc3)C4)c(C#N)c(=O)n2c1 [Example 11-179, 2-(((1R)-1-(3-cyano-2-(3-(4-cyanophenyl)-3,6-diazabicyclo[3.1.1]heptan-6-yl)-7-methyl-4-oxo-4H-pyrido[1,2-a]pyrimidin-9-yl)ethyl)amino)benzoic acid] | 1.53 | > 10 |
| Cc1cc([C@@H](C)Nc2ccccc2C(=O)O)c2nc(N3CC4CC3C4)c(C)c(=O)n2c1 [Example 11-127, (R)-2-((1-(2-(2-azabicyclo[2.1.1]hexan-2-yl)-3,7-dimethyl-4-oxo-4H-pyrido[1,2-a]pyrimidin-9-yl)ethyl)amino)benzoic acid] | 0.323 | > 10 |
| Cc1cc([C@@H](C)Nc2ccccc2C(=O)O)c2nc(N3CCN(c4cn(C)nc4C#N)CC3)c(C)c(=O)n2c1 [Example 11-185, (R)-2-((1-(2-(4-(3-cyano-1-methyl-1H-pyrazol-4-yl)piperazin-1-yl)-3,7-dimethyl-4-oxo-4H-pyrido[1,2-a]pyrimidin-9-yl)ethyl)amino)benzoic acid] | 0.123 | > 10 |
| Cc1cc([C@@H](C)Nc2ccccc2C(=O)O)c2nc(N3CCC(N(C)C)CC3)c(C#N)c(=O)n2c1 [Example 11-313, (R)-2-((1-(3-cyano-2-(4-(dimethylamino)piperidin-1-yl)-7-methyl-4-oxo-4H-pyrido[1,2-a]pyrimidin-9-yl)ethyl)amino)benzoic acid] | > 10 | > 10 |
| Cc1cc([C@@H](C)Nc2ccccc2C(=O)O)c2nc(N3CCC4(CC3)C(F)(F)C4(F)F)c(C)c(=O)n2c1 [Example 11-213, (R)-2-((1-(3,7-dimethyl-4-oxo-2-(1,1,2,2-tetrafluoro-6-azaspiro[2.5]octan-6-yl)-4H-pyrido[1,2-a]pyrimidin-9-yl)ethyl)amino)benzoic acid] | 0.257 | > 10 |
| Cc1cc([C@@H](C)Nc2cnc(Cl)nc2C(=O)O)c2nc(N3Cc4ccccc4C3)c(C#N)c(=O)n2c1 [Example 11-325, (R)-2-chloro-5-((1-(3-cyano-2-(isoindolin-2-yl)-7-methyl-4-oxo-4H-pyrido[1,2-a]pyrimidin-9-yl)ethyl)amino)pyrimidine-4-carboxylic acid] | 3.08 | > 10 |
| Cc1cc([C@@H](C)Nc2ccc(Cl)nc2C(=O)O)c2nc(N3CCC(C)(C)CC3)c(C)c(=O)n2c1 [Example 11-279, (R)-6-chloro-3-((1-(2-(4,4-dimethylpiperidin-1-yl)-3,7-dimethyl-4-oxo-4H-pyrido[1,2-a]pyrimidin-9-yl)ethyl)amino)picolinic acid] | 0.192 | > 10 |
| Cc1cc([C@@H](C)Nc2ccccc2C(=O)O)c2nc(N3CCC(c4ccccc4)C3)c(C)c(=O)n2c1 (stereo partly drawn) [Example 11-14, 2-(((1R)-1-(3,7-dimethyl-4-oxo-2-(3-phenylpyrrolidin-1-yl)-4H-pyrido[1,2-a]pyrimidin-9-yl)ethyl)amino)benzoic acid] | 0.233 | > 10 |
| Cc1cc([C@@H](C)Nc2ccccc2C(=O)O)c2nc(N3CC4(CN(c5ccc(C#N)cc5)C4)C3)c(C#N)c(=O)n2c1 [Example 11-190, (R)-2-((1-(3-cyano-2-(6-(4-cyanophenyl)-2,6-diazaspiro[3.3]heptan-2-yl)-7-methyl-4-oxo-4H-pyrido[1,2-a]pyrimidin-9-yl)ethyl)amino)benzoic acid] | 1.11 | > 10 |
| Cc1cc([C@@H](C)Nc2ccccc2C(=O)O)c2nc(N3Cc4nccnc4C3)c(C)c(=O)n2c1 [Example 11-138, (R)-2-((1-(2-(5,7-dihydro-6H-pyrrolo[3,4-b]pyrazin-6-yl)-3,7-dimethyl-4-oxo-4H-pyrido[1,2-a]pyrimidin-9-yl)ethyl)amino)benzoic acid] | 0.392 | > 10 |
| Cc1cc(C(C)Nc2ccccc2C(=O)O)c2nc(N3CCCC(O)C3)cc(=O)n2c1 (stereo not shown) [Example 11-343, 2-((1-(2-(3-hydroxypiperidin-1-yl)-7-methyl-4-oxo-4H-pyrido[1,2-a]pyrimidin-9-yl)ethyl)amino)benzoic acid] | > 10 | > 10 |
| CC(=O)N1CCC(c2cc(=O)n3cc(C)cc(C(C)Nc4ccccc4C(=O)O)c3n2)CC1 (stereo not shown) [Example 11-381, 2-((1-(2-(1-acetylpiperidin-4-yl)-7-methyl-4-oxo-4H-pyrido[1,2-a]pyrimidin-9-yl)ethyl)amino)benzoic acid] | 5.46 | > 10 |
| Cc1cc(C(C)Nc2ccccc2C(=O)O)c2nc(N3CCN(c4ccccc4)CC3)cc(=O)n2c1 (stereo not shown) [Example 11-335, 2-((1-(7-methyl-4-oxo-2-(4-phenylpiperazin-1-yl)-4H-pyrido[1,2-a]pyrimidin-9-yl)ethyl)amino)benzoic acid] | 0.386 | > 10 |
| Cc1cc([C@@H](C)Nc2ccccc2C(=O)O)c2nc(N3CC4C5CCC(C5O)C4C3)c(C)c(=O)n2c1 (stereo partly drawn) [Example 11-35, 2-(((1R)-1-(2-(8-hydroxyoctahydro-2H-4,7-methanoisoindol-2-yl)-3,7-dimethyl-4-oxo-4H-pyrido[1,2-a]pyrimidin-9-yl)ethyl)amino)benzoic acid] | 0.136 | > 10 |
| Cc1cc([C@@H](C)Nc2ccccc2C(=O)O)c2nc(N3CCN(c4cccc(C(F)(F)F)c4)CC3)c(C)c(=O)n2c1 [Example 11-439, (R)-2-((1-(3,7-dimethyl-4-oxo-2-(4-(3-(trifluoromethyl)phenyl)piperazin-1-yl)-4H-pyrido[1,2-a]pyrimidin-9-yl)ethyl)amino)benzoic acid] | 0.241 | > 10 |
| Cc1cc(C(C)Nc2ccccc2C(=O)O)c2nc(C3=CCNCC3)cc(=O)n2c1 (stereo not shown) [Example 11-378, 2-((1-(7-methyl-4-oxo-2-(1,2,3,6-tetrahydropyridin-4-yl)-4H-pyrido[1,2-a]pyrimidin-9-yl)ethyl)amino)benzoic acid] | > 10 | > 10 |
| Cc1cc([C@@H](C)Nc2ccccc2C(=O)O)c2nc(O[C@H]3CCOC3)c(C)c(=O)n2c1 [Example 11-246, 2-(((R)-1-(3,7-dimethyl-4-oxo-2-(((S)-tetrahydrofuran-3-yl)oxy)-4H-pyrido[1,2-a]pyrimidin-9-yl)ethyl)amino)benzoic acid] | 0.196 | > 10 |
| CO[C@@H]1CN(c2nc3c([C@@H](C)Nc4ccccc4C(=O)O)cc(C)cn3c(=O)c2C)CCC1(F)F [Example 11-58, 2-(((R)-1-(2-((R)-4,4-difluoro-3-methoxypiperidin-1-yl)-3,7-dimethyl-4-oxo-4H-pyrido[1,2-a]pyrimidin-9-yl)ethyl)amino)benzoic acid] | 0.17 | > 10 |
